Key:
rat adipocyte = experiment: Inhibition of free fatty acid (FFA) release from epinephrine-stimulated rat adipocytes; format: cell-based; settings: concentration inhibiting release of the fatty acid by 50 %, relative values with IC50 of VOSO4 regarded as 1.00 mM, 10^-5 M epinephrine, 3 hours at 37°C, glycine complex in aqueous solution, others in physiological saline
Procedure: A pharmacological test was conducted as described below in accordance with the method reported in Biol.Pharm.Bull., 18, 719-725 (1995).
A male Wistar rat weighing 200 g was exsanguinated under an anesthesia with ether, and a fat cell mass was isolated from a fat tissue around an epididymis according to the method of Road Bell (J. Biol. Chem. , 239, 375(1964)). The fat cell mass was cut into pieces using scissors, and digested for 1 hour at 37°C in a KRB buffer solution (5 mM Glucose, 120 mM NaCl, 1.27 mM CaCl2, 1.2 mM MgSO4, 4.75 mM KCl, 1.2 mM KH2PO4 and 24 […]; pH=7.4) supplemented with 20 mg of bovine serum albumin (BSA) and 2 mg of collagenase per ml. The fat cells were sieved through a nylon mesh (250 µm) whereby being made free from any undigested tissue, washed three times with the buffer similar to that described above except for containing no collagenase, and adjusted at 2.5 x 10^6 cells/ml.
Then the reaction mixture was combined with 10^-5 M epinephrine and the resultant solution was incubated for 3 hours at 37°C. The reaction was quenched by cooling with ice, and the mixture was centrifuged for 10 minutes at 3000 rpm. The extracellular solution was examined for its free fatty acid (FFA) level using an NEFA kit whereby calculating an IC50 value.

KK-A^y mice [1] = experiment: Body weight change in KK-A^y mice under daily intraperitoneal treatment (index of side effects); format: in vivo; settings: intraperitoneally once a day, 4.5 or 2.5 mg Zn/kg depending on blood glucose, 13 to 15 days (Figures 9 to 11)
Procedure: (§1) In the control group, 0.5 ml of the acacia solution was given.

KK-A^y mice [2] = experiment: Glucose tolerance test in KK-A^y mice after 3 days of treatment; format: in vivo; settings: 4 mg/kg once a day for 3 days, then fasted for 14 hours, compared with mice not receiving the complex (Figure 3)
Procedure: Subsequently, KK-A^y mice as type II diabetes model animals and humans were subjected to the glucose tolerance tests to obtain blood glucose curves, which are shown in Figure 3 and Figure 4.
In Figure 3, (a) denotes a blood glucose curve obtained in a glucose tolerance test in mice each of which received 4 mg/kg of Zn(PA)2(H2O)2 as an inventive zinc (II) complex once a day for 3 days and then fasted for 14 hours, and (b) denotes one in a control group in which the mice were not treated with the complex. In Figure 4, (a) denotes a blood glucose curve obtained in a glucose tolerance test in diabetes patients, while (b) denotes one in normal healthy volunteers.

KK-A^y mice [3] = experiment: Glucose tolerance test in KK-A^y mice after 15 days of treatment; format: in vivo; settings: KK-A^y mice fasted for 13 hours, glucose orally at 1 g/kg; compared with control mice (Figure 12)
Procedure: 8-Week old KK-A^y mice were treated intraperitoneally once a day with a 5 % acacia solution in a control group (n=6) or with Zn(PA)2 (n=6), Zn(maltol)2 (n=7) or Zn(Cys-OMe)2 (n=6) dissolved in a 5 % acacia solution in the complex treatment groups.
as §1
(glucose tolerance test: A mouse was fasted for 13 hours and then administered orally with glucose at 1 g/kg, and then the blood glucose levels were determined at certain time intervals.)

[4] = Glucose +, 6-methyl-picolinic acid and pyridine-2-acetic acid complexes in DMSO

O=S(=O)([O-])[O-].[O]=[V+2] [VOSO4/5.4 or 2.3H2O, Oxovanadium sulfate, reference compound]
IC50 (rat adipocyte; [4]): 1 mM | IC50 (rat adipocyte; Glucose -): 1 mM

Cc1cccnc1C(=O)O [Zn(3MPA)2]
IC50 (rat adipocyte; Glucose -): 0.42 mM

O=C(O)c1cccc(Br)n1 [Zn(6BPA)2]
IC50 (rat adipocyte; Glucose -): 0.45 mM

Cc1cccc(C(=O)[O][Zn][O]C(=O)c2cccc(C)n2)n1 [Zn(6MPA)2(H2O), bis(6-methyl-picolinate)zinc(II)complex]
IC50 (rat adipocyte; [4]): 0.39 mM

COC(=O)C(N)C[S-].COC(=O)C(N)C[S-].[Zn+2] [Zn(Cys-OMe)2, bis(L-cysteine methyl ester) zinc (II) complex]
body weight change (weight loss as an index of side effects) (KK-A^y mice [1]): no increase or decrease in the body weight was observed

O=C(O)C1CSCN1 [Zn(D-4Tia)2]
IC50 (rat adipocyte; Glucose -): 1.28 mM

NC(=O)CC[C@H](N)C(=O)O [Zn(Gln)2]
IC50 (rat adipocyte; [4]): 0.84 mM

O=c1cc(CO)occ1O [Zn(Koj)2]
IC50 (rat adipocyte; Glucose -): 0.91 mM

O=C(O)C1CSCN1 [Zn(L-4Tia)2]
IC50 (rat adipocyte; Glucose -): 1.2 mM

O=C([O-])c1cccnc1.O=C([O-])c1cccnc1.[Zn+2] [Zn(Nic)2/4H2O]
IC50 (rat adipocyte; [4]): 0.82 mM

O.O.O=C([O-])c1ccccn1.O=C([O-])c1ccccn1.[Zn+2] [trans-[Zn(PA)2H2O)2], trans-bis(picolinate) zinc (II) complex]
blood glucose curve in glucose tolerance test (KK-A^y mice [2]): a reduced peak level of the blood glucose followed by a rapid decrease, as compared with the mice not receiving the complex and then recovered its almost normal blood glucose level after 180 minutes | body weight change (weight loss as an index of side effects) (KK-A^y mice [1]): not observed in most of the animals | glucose tolerance test after the administration of each complex for 15 days (KK-A^y mice [3]): an amelioration of the diabetes conditions when compared with the diabetes mice (control mice)

bis(2-mercaptopyridine-N-oxide) zinc (II) complex [Zn(MPNO)2/0.3H2O]
IC50 (rat adipocyte; [4]): 0.011 mM | IC50 (rat adipocyte; Glucose -): 0.013 mM

bis(3-hydroxy-2-methyl-4-pyronate) zinc (II) complex [Zn(maltol)2/2.6H2O]
IC50 (rat adipocyte; [4]): 0.57 mM | body weight change (weight loss as an index of side effects) (KK-A^y mice [1]): immediately after the treatment with the complex, the body weight was recovered in response to the reduction in the blood glucose and the reduction in the dose | glucose tolerance test after the administration of each complex for 15 days (KK-A^y mice [3]): an amelioration of the diabetes conditions when compared with the diabetes mice (control mice)

bis(pyrrolidine-N-dithiocarbamate) zinc (II) complex [Zn(PCD)2]
IC50 (rat adipocyte; Glucose -): 0.049 mM

cis-bis(threonine) zinc (II) complex [cis-[Zn(Thr)2(H2O)2]]
IC50 (rat adipocyte; Glucose -): 1.3 mM

trans-bis(glycine) zinc (II) complex [Zn(Gly)2/1.0H2O]
IC50 (rat adipocyte; [4]): 0.63 mM | IC50 (rat adipocyte; Glucose -): 0.84 mM
